Consider seven molecules from article PMC10221175.

For series [1], the system named is 5′-FAM-AT11-L0-TAMRA-3′ (DNA, G4) TGGTGGTGGTTGTTGGGTGGTGGTGGT
Nature of the series: FRET melting. The conditions noted are these: 65 mM KCl, 20 mM potassium phosphate, pH 6.9, 0.2 µM DNA.

Series [2] has as its system 5′-Cy5-AT11-L0 (DNA, G4) TGGTGGTGGTTGTTGGGTGGTGGTGGT
Nature of the series: fluorescence titration (Cy5 quenching), Hill model. The conditions noted are these: 65 mM KCl, 20 mM potassium phosphate; pH 6.9; 1 µM DNA; apparent.

Series [3] shares this test system. Nature of the series: fluorescence titration (Cy5 quenching), two-site model. The conditions noted are these: 65 mM KCl, 20 mM potassium phosphate; pH 6.9; 1 µM DNA; site 1 of 2; apparent.
In series [4] the target is T1, nucleolin RBD1,2 (NCL RBD1,2) (UniProt P19338 307-466). Nature of the series: fluorescence titration (Cy5 quenching); no ligand; two-site model, KD1; aptamer pre-annealed in 20 mM potassium phosphate pH 6.9, 65 mM KCl (95 C 10 min, ice 10 min); titration temperature not given in the material. The conditions noted are these: protein: recombinant; label: 5'-Cy5; parallel G4, pre-folded in K+.
T1 sequence (P19338 307-466): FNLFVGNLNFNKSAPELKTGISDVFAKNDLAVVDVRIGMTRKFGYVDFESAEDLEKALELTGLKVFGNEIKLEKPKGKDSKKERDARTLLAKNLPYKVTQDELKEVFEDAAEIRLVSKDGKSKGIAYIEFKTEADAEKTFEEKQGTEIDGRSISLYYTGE

The target in series [5] is T1, nucleolin RBD1,2 (NCL RBD1,2). The series is described as follows: fluorescence titration (Cy5 quenching); ligand PhenDC3; two-site model, KD1; aptamer pre-annealed in 20 mM potassium phosphate pH 6.9, 65 mM KCl (95 C 10 min, ice 10 min); titration temperature not given in the material. The conditions noted are these: protein: recombinant; label: 5'-Cy5; parallel G4, pre-folded in K+.

For series [6] the target is unchanged. The series is described as follows: fluorescence titration (Cy5 quenching); ligand C8; two-site model, KD1; aptamer pre-annealed in 20 mM potassium phosphate pH 6.9, 65 mM KCl (95 C 10 min, ice 10 min); titration temperature not given in the material. The conditions noted are these: protein: recombinant; label: 5'-Cy5; parallel G4, pre-folded in K+.

Where only a bound is given, the exact number is not on record here.

Take `NCCOc1cc(C(=O)Nc2cc(OCCN)c3ccccc3n2)nc(C(=O)Nc2cc(OCCN)c3ccccc3n2)c1`: in series [1] (1 µM compound (5 eq)), the ΔTm (commonly the shift of the melting midpoint relative to a reference) came out at 26.9 °C.

As for `CN(C)c1ccc2cc3ccc(N(C)C)cc3[n+](CCCCCCCCNC(=O)c3ccc(I)cc3)c2c1`, the KD in series [2] was 22.1 nM. Moreover, the shift in melting temperature (ΔTm) in series [1] (1 µM compound (5 eq)) was found to be 19.6 °C. For the molecule `C[n+]1ccc(-c2c3nc(c(-c4cc[n+](C)cc4)c4ccc([nH]4)c(-c4cc[n+](C)cc4)c4nc(c(-c5cc[n+](C)cc5)c5ccc2[nH]5)C=C4)C=C3)cc1`, the ΔTm in series [1] (1 µM compound (5 eq)) was 28 °C. On to `C[n+]1cc(NC(=O)c2ccc3ccc4ccc(C(=O)Nc5cc6ccccc6[n+](C)c5)nc4c3n2)cc2ccccc21`, for which, in series [3], the KD1 stood at 329 pM. Further, the thermal shift (ΔTm) in series [1] (1 µM compound (5 eq)) is over 30 °C. Turning to `CN(C)c1ccc(Nc2c3ccc(NC(=O)CCN4CCCC4)cc3nc3cc(NC(=O)CCN4CCCC4)ccc23)cc1`, the shift in melting temperature (ΔTm) in series [1] (1 µM compound (5 eq)) came out at 20.3 °C. Consider `C[C@@H]1C[C@H]2[C@@H]3CCC4=CC(=O)C=C[C@]4(C)[C@@]3(F)[C@@H](O)C[C@]2(C)[C@@]1(O)C(=O)CO`, for which the ΔTm in series [1] (0.2 µM compound (1 eq)) was determined as 0.1 °C. In the case of TGGTGGTGGTTGTTGGGTGGTGGTGGT (structured_DNA) [5'-Cy5-AT11-L0], the Kd (commonly the free concentration of one partner at which half of the binding sites on the other are occupied at equilibrium, for simple one-to-one binding) amounted to 0.012 nM in series [4], 0.02 nM in series [5] and 0.024 nM in series [6].
